Measured values as given in patent US5149714A, “Antidepressants” (Merrell Dow Pharmaceuticals Inc., priority 1990, dated 1992).
Where two headings read alike, the source gives them in different places.

System: β-adrenergic receptors
Conditions: Desipramine 5 mg/kg, i.p.; for [^3 H]-DHA Specifically Bound: mean ± SEM, six animals per group
Method: The number of β-adrenergic receptors in rat cerebral cortical membranes was measured after a 4 day and 14 day course of one of the following treatments:
a) saline control (intraperitoneal injection--i.p.)
c) fluoxetine (10 mg/kg/day, i.p.) or (10 mg/kg bid, i.p.)
Male Sprague-Dawley rats (175-200 g) were assigned randomly to one of the four treatment groups above and were treated as indicated for either 4 or 14 days. The animals were sacrificed 24 hours after their last treatment and cerebral cortical membranes were isolated. These membranes were assayed for β-adrenergic receptor number by the method of Bylund and Snyder [Mol. Pharmacol. 12, 568 (1976)] by measuring the amount of [3H]dihydro-alprenolol ([^3 H]-DHA) bound.

CNCCC(Oc1ccc(C(F)(F)F)cc1)c1ccccc1 (stereo not shown) [Fluoxetine, fluoxetine]
[^3 H]-DHA Specifically Bound, % Control (A) 14 days, Fluoxetine 10 mg/kg): 91 % Control
[^3 H]-DHA Specifically Bound (A) 14 days, Fluoxetine 10 mg/kg, saline 41.8 ± 1.4, * p < 0.05 vs saline, + P < 0.05 vs Desipramine): 37.9 ± 1.8 fmol/mg protein
[^3 H]-DHA Specifically Bound, % Control (B) 4 days, Fluoxetine 10 mg/kg bid): 95 % Control
[^3 H]-DHA Specifically Bound (B) 4 days, Fluoxetine 10 mg/kg bid, saline 54.6 ± 3.1, * p < 0.05 vs saline): 51.8 ± 1.7 fmol/mg protein
